According to patent US20240390434A1, “PROBIOTIC ENHANCERS AND USES THEREOF” (Blis Technologies Limited, priority 2021, published 2024):

Legend:
Format in all cases: cell-based
S. pyogenes M57 = experiment: Dose response deferred antagonism assay, producer K12; conditions: 0.1%, 1.0%, and 1.5% (w/v) galactose
Description: (§1) 1-2 producer strain colonies were transferred from a stock plate into 900 μL of suspension solution using a fresh cotton swab. Following this, suspensions were vortexed, and a sample was inoculated onto solid culture media using a fresh cotton swab. The inoculation was a streak that runs diametrically across the agar plate in a 1.5 cm wide strip. The plate was then incubated. Following incubation all visible colonies were removed by swabbing them from the agar surface. The plates were then treated with chloroform by dispensing 2 ml of chloroform onto 4 cm×4 cm piece of cloth and sealing the inverted agar plate on top for 30 minutes. The plates were then air dried for 30 minutes following chloroforming. 1-2 indicator strain colonies were then transferred from a stock plate into complementary suspension solution. The suspensions were then vortexed, and a sample was inoculated onto the same agar surface. These samples were streaked in a perpendicular direction to the initial producer streak.
(§2) Each indicator streak was prepared with fresh a suspension containing cells from a corresponding stock plate containing the indicator strain of interest. Indicator strains suspension samples were transferred using a fresh cotton swab. Results were measured by qualitatively reviewing the subsequent (if any) sizes of the zones of inhibition (ZOI) of indicator strain colony growth. A positive result is when there is a distinctive reduction or complete inhibition of indicator colony growth on the culture medium.
(§3) CABCa agar plates containing various concentrations of saccharide were prepared according to the methods described in Method 1. Producer strains were transferred from stock agar plates into 900 μL THB using a fresh cotton swab. A plastic spread plater was cut to approximately 1.2 cm width and then dipped into ethanol and left to air dry to ensure sterility. A 100 μL sample of the producer strain suspension was then dispensed onto the agar surface in a straight line running diametrically across the agar surface in (approximately) 20 μL spots. The spots were spaced approximately 1.5 cm apart from each other. The plastic spreader was then used to evenly distribute the spots across the agar surface in a 1.5 cm wide strip. This step was taken to ensure an even producer streak was inoculated onto the agar surface and provided an approximate measure of the initial inoculum concentration. Separate plastic spreaders were used for samples containing different producer strains. The samples were left to soak into the agar surface until there was no visible liquid remaining on the agar surface (approximately 20 minutes). Following producer streak preparations, the deferred antagonism assay protocol was followed as per Method 2. Results were recorded by measuring the size of the zone of inhibition (ZOI) in mm.
(§4) The results presented in FIG. 1 and FIG. 2 illustrate the change in ear, nose, and throat (ENT) microorganism indicator strain zone of inhibition sizes. When K12 was cultured in the presence of various concentrations of galactose the ZOI sizes for several of the ENTR indicator strains increased markedly from the control condition (FIG. 1). M. catarrhalis TW1 and TW2 display similar changes in the ZOI sizes across the various concentrations of galactose. The change in TW1 ZOI size peaks at 1.5% galactose(w/v) (12 mm) then decreases at 2.0% galactose (w/v), whereas the change of TW2 ZOI size peaks at 2.0% galactose (w/v) (11 mm). The change in L. lactis T-21 ZOI sizes trend upwards relative to the concentration of galactose present in the culture medium.

S. pyogenes M76 = experiment: Dose response deferred antagonism assay, producer M18; conditions: 1.5% (w/v) galactose, largest
H. influenzae TW5 = experiment: Dose response deferred antagonism assay, producer K12
Description: as §1, §2, §3, §4

[1] = tested on: halitosis-causing gram-negative bacteria F. nucleatum, P. gingivalis and P. intermedia; experiment: Deferred antagonism assay (anaerobic), producer M18; conditions: 2.5% w/w raffinose; or combination with 0.5% w/w galactose
Description: Method: CABCa agar plates were prepared with or without 2.5% w/w raffinose, 0.5% w/w galactose or a combination of both saccharides by the addition of 0.5% (w/v) calcium carbonate to solid CAB agar in bottles and then melted by autoclaving at 110° C. for 10 mins. Once cooled, filter sterilised solutions of the saccharides or distilled water were added and mixed and then 20 ml pipetted into petri dishes.
A deferred antagonism assay was conducted using K12 or M18 raw ingredient suspended in THB. This was spread as a 1.2 cm streak containing approximately 1-2×10^6 cfu down the middle of a CABCa control or CABCa galactose supplemented test plate. After 18 hrs growth at 37° C., 5% CO2 in air, bacterial growth was removed, and the pH of the agar in the initial streak was measured and adjusted to a pH of 6.5-7.5 using 0.5M sodium carbonate pH11 before sterilizing the agar surface using chloroform vapor. Bacterial test strains were suspended in THB and swabbed across the plates perpendicular to the initial streak and then the plates were incubated at 37° C. in an anaerobic jar containing an anaeroGen sachet for 4 days. Zones of inhibition for each test strain were then measured (mm).

Structure (SMILES)	S. pyogenes M57 ZOI sizes vs control condition (S. pyogenes M57)	S. pyogenes M76 zone of inhibition (S. pyogenes M76)	change in ZOI size for H. influenzae TW5 (H. influenzae TW5; 1.5% raffinose (w/v), peak)	TW5 ZOI size change (H. influenzae TW5; 2% raffinose (w/v))	antimicrobial activity of M18 against halitosis-causing bacteria [1]
O=C[C@H](O)[C@@H](O)[C@@H](O)[C@H](O)CO [Galactose, D-galactose]	increase	14 mm			
OC[C@H]1O[C@H](OC[C@H]2O[C@H](O[C@]3(CO)O[C@H](CO)[C@@H](O)[C@@H]3O)[C@H](O)[C@@H](O)[C@@H]2O)[C@H](O)[C@@H](O)[C@H]1O [Raffinose, D-(+) Raffinose pentahydrate]			12 mm	0 mm	inhibit some strains
